Holding throughout (type): cell-based
One assay addresses T1, PPARγ (Homo sapiens, UniProt P37231).
T1 construct: expressed in transfected cells; host or cells: CV-1 cells
T1 sequence (P37231 238-503 limits assumed): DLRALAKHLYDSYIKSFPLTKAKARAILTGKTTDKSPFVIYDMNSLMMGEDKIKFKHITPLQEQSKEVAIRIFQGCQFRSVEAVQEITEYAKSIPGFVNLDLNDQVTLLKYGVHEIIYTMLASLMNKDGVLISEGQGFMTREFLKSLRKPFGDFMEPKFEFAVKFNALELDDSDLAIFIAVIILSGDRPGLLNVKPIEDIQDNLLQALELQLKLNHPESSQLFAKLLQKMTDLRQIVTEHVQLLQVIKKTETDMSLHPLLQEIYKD
Nature of the assay: PPAR-gamma EC50, functional cell (transactivation) assay. An excerpt: (§1) The following transfection assay methods are provided by way of example only. Compounds may be screened for functional potency in transient transfection assays in CV-1 cells for their ability to activate the PPAR subtypes (transactivation assay). A previously established chimeric receptor system was utilized to allow comparison of the relative transcriptional activity of the receptor subtypes on the same target gene and to prevent endogenous receptor activation from complicating the interpretation of results. See, for example, Lehmann, J. M.; Moore, L. B.; Smith-Oliver, T. A; Wilkinson, W. O.; Willson, T. M.; Kliewer, S. A., An antidiabetic thiazolidinedione is a high affinity ligand for peroxisome proliferator-activated receptor γ(PPARγ), J. Biol. Chem., 1995, 270, 12953-6. The ligand binding domains for murine and human PPAR-alpha, PPAR-gamma, and PPAR-delta are each fused to the yeast transcription factor GAL4 DNA binding domain. CV-1 cells were transiently transfected with expression vectors for the respective PPAR chimera along with a reporter construct containing five copies of the GAL4 DNA binding site driving expression of secreted placental alkaline phosphatase (SPAP) and p-galactosidase. After 16 h, the medium is exchanged to DME medium supplemented with 10% delipidated fetal calf serum and the test compound at the appropriate concentration. After an additional 24 h, cell extracts are prepared and assayed for alkaline phosphatase and pgalactosidase activity. Alkaline phosphatase activity was corrected for transfection efficiency using the p-galactosidase activity as an internal standard (see, for example, Kliewer, S. A., et. al. Cell 1995, 83, 813-819. Rosiglitazone is used as a positive control in the hPPARγ assay. The positive control in the hPPAR-alpha and hPPAR-delta assays was 2-[4-(2-(3-(4-fluorophenyl)-1heptylureido)ethyl)-phenoxy]-2-methylpropionic acid, which can be prepared as described in Brown, Peter J., et. al. Synthesis (7), 778-782 (1997), or patent publication WO 9736579.
(§2) Compounds of Examples 1-41 were assayed to measure their biological activity with respect to their EC50 values and efficacy for modulating PPAR-alpha, PPAR-gamma, and PPAR-delta as set forth in Table 2.

In the next assay the target is T2, PPARδ (Homo sapiens, UniProt Q03181).
T2 construct: expressed in transfected cells; host or cells: CV-1 cells
T2 sequence (Q03181 211-439 limits assumed): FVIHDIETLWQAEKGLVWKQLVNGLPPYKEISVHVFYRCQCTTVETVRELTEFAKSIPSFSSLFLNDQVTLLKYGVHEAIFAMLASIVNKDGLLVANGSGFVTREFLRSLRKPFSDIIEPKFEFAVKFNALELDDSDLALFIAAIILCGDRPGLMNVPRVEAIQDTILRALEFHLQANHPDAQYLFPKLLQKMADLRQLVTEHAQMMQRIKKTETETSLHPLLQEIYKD
Nature of the assay: PPAR-delta EC50, functional cell (transactivation) assay.
Text: as §1, §2

The target of a further assay is T3, PPARα (Homo sapiens, UniProt Q07869).
T3 construct: expressed in transfected cells; host or cells: CV-1 cells
T3 sequence (Q07869 239-466 limits assumed): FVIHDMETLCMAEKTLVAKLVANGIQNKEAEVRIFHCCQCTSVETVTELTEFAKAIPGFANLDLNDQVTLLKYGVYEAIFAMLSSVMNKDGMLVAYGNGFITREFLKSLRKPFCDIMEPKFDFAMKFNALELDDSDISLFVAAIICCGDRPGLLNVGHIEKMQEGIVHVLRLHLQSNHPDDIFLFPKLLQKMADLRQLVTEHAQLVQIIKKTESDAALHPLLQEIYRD
As to the kind of experiment: PPAR-alpha EC50, functional cell (transactivation) assay.
Text: as §1, §2

On to `CC(C)(Oc1ccc(S(=O)(=O)N2CCN(c3ccc(F)cc3)CC2)cc1)C(=O)O`, for which the figures for the EC50 on PPARγ, on PPARδ and on PPARα were over 100 µM, 1 to 100 µM and over 100 µM, respectively.

Consider `Cc1cc(S(=O)(=O)N2CCN(c3cccc(Cl)c3)CC2)ccc1OC(C)(C)C(=O)O`, for which the figures for the EC50 at PPARγ, at PPARδ and on PPARα were 1 to 100 µM, 1 to 100 µM and over 100 µM, respectively.

For `Cc1cc(S(=O)(=O)N2CCN(c3ccccc3Cl)CC2)ccc1OC(C)(C)C(=O)O`, the EC50 on PPARγ was 1 to 100 µM; at PPARδ, 1 to 100 µM; on PPARα, over 100 µM.

Turning to `Cc1cc(S(=O)(=O)N2CCN(C(c3ccccc3)c3ccc(Cl)cc3)CC2)ccc1OC(C)(C)C(=O)O` (stereo not drawn) [drawing 116], the EC50 at PPARγ, on PPARδ and at PPARα was 1 to 100 µM in each case.

With `Cc1cc(S(=O)(=O)N2CCN(C(c3ccccc3)c3ccc(Cl)cc3)CC2)ccc1OC(C)(C)C(=O)O` (stereo not drawn) [drawing 127], the EC50 on PPARγ, at PPARδ and on PPARα was 1 to 100 µM in each case.

The values are drawn from patent publication US20060258683A1, “Para-sulfonyl substituted phenyl compounds as modulators of ppars” (priority 2003, published 2006).
